Legend:
Format in all cases: cell-based
[1] = test system: E. coli XL-1 with pBAD-TA5; assay: L-arabinose-addiction yefM-yoeB TA system, cell growth (OD600)
Experimental: The yefM-yoeB TA pair was cloned into a plasmid (pBAD-TA5: araC, pBAD-yefM, pLac-yoeB, ampR) (Table 1) employing standard PCR cloning protocols (known in the art) and the plasmid was transformed into the host stain E. coli XL-1 with the genotype: recA1endA1 gyrA96 thi-1 hsdR17 supE44 relA1 lac[F′proAB lacIqZM15 Tn10 (TetR)]. Electroporation recovery of transformed cells was carried out in SOC medium (2% tryptone, 0.5% yeast extract, 10 mM NaCl, 2.5 mM KCl, 10 mM MgCl2, 10 mM MgSO4, and 20 mM glucose).
Transformed E. coli cultures were grown in 2xYT medium (10 g/L yeast extract, 16 g/L tryptone, 5 g/L NaCl). Antibiotics were added to select for maintenance of plasmids in strains transformed with these, according to their respective antibiotic resistance gene. Antibiotic concentrations when added were as follows: ampicillin 100 μg/mL, chloramphenicol 30 μg/mL, spectinomycin 50 μg/mL, kanamycin 50 μg/mL.
The expression of the yoeB gene in the yefM-yoeB TA pair construct (FIG. 2) was placed under the control of the Lac promoter, which is inducible by isopropyl β-D-1-thiogalactopyranoside (IPTG). Exposure of the cells to increasing concentrations of IPTG induced sufficient expression of the YoeB toxin to prevent growth, when the cells were grown in the absence of any source of L-arabinose (FIG. 3A). […]

[2] = test system: E. coli XL1 with folP/glmM driven by pBAD promoter; assay: L-arabinose-addiction regulated essential gene operon folP/glmM, cell growth (OD600); conditions: 37° C.
[3] = test system: E. coli XL1 with pBAT-TA5; assay: TPP-responsive riboswitch-regulated TA system, cell growth (OD600); conditions: presence of inducer TPP (500 μM added to the growth medium)
Description: A TPP-responsive riboswitch (ThiMN15 #19) was engineered into the previously constructed L-arabinose-responsive TA-based correction system (pBAD-TA5 to yield pBAT-TA5). This TPP riboswitch functions as an “ON-type” when in the presence of its ligand TPP, and it is functional at the level of translation. The riboswitch was inserted into the DNA region of the pBAD-TA5 gene construct that encodes the 5′ untranslated region (UTR) of the antitoxin mRNA sequence (FIG. 17). For optimal functionality of the riboswitch, a protein-encoding sequence tet was also added as N-terminal fusion to YefM as it originated from the screen where ThiMN15#19 had been identified. An alternative TPP-responsive riboswitch was constructed, where an “OFF-type” riboswitch was inserted into the DNA region of the pBAD-TA5 gene construct that encodes the 5′-UTR of the toxin-encoding sequence to yield the same ligand-responsive growth.
An alternative TPP responsive-riboswitch-regulated TA correction system was engineered with a constitutive promoter driving expression of the riboswitch-yefM mRNA. From a selection of constitutive promoters (SEQ ID Nos.: 47-65, 89) of different strengths, the pBAD promoter of pBAT-TA5 was replaced and the resulting plasmids transformed into E. coli XL1. […]

[4] = test system: E. coli strain e3.22#4; assay: Benzoic acid-dependent growth of addicted strain; conditions: 5 mM benzoic acid
Description: (§1) The native single genomic copy of the essential gene operon folP-glmM in the E. coli XL1 host strain was modified to allow its transcriptional control by the benzoic acid-responsive promoter pSAL [SEQ ID No:118]. First, a gene encoding a benzoic acid biosensor (Pseudomonas putida nahR) (Table 12) was introduced into the XL1 host strain on the plasmid pBABspec. Then, replacement of the native folP-glmM promoter by the pSAL promoter was engineered by means of lambda red-mediated recombineering.
Recombineering was performed as described in section 2.3 using well-described methods utilizing the pKD46 plasmid (Datsenko and Wanner, 2000)). Instead of gene disruption, a specific set of knock-out DNA fragments was used to only replace the native essential folP-glmM operon promoter and folP RBS. This set of knockout DNA fragments contained a kanamycin resistance cassette and the pSAL promoter, as illustrated in the cartoon in FIG. 8, as well as a redundant nucleotide (“N”, wherein “N” is any of A, T , G or C) in the RBS for folP-glmM to generate a four-membered library of folP translational strengths. […]
(§2) A selected addicted strain (e3.22#4) and the non-addicted control E. coli strain (e3.18CON) were then tested for benzoic acid dependent growth by cultivation in a microtiter plate reader in liquid 2xYT medium supplemented with spectinomycin and kanamycin and w/wo salicylic acid (0 or 5 mM). […]

[5] = test system: E. coli control strain e3.22CON; assay: Toxicity of benzoic acid to non-addicted control strain, growth in microtiter plate; conditions: 2xYT, 5 mM benzoic acid, 37 deg. C.
Experimental: A non-addicted control E. coli strain (e3.22CON), also equipped with spectinomycin and kanamycin resistance genes, but wild-type control of folP-glmM expression (Table 13), was constructed in order to test the toxicity of benzoic acid.
A selected addicted strain (e3.22#4) and the non-addicted control E. coli strain (e3.18CON) were then tested for benzoic acid dependent growth by cultivation in a microtiter plate reader in liquid 2xYT medium supplemented with spectinomycin and kanamycin and w/wo salicylic acid (0 or 5 mM). […] In contrast to the control strain, the growth rate and final biomass yield of the addicted strain e3.18#1 was enhanced by supplementation with benzoic acid with a growth rate higher than otherwise expected for non-addicted strains (FIG. 16).

[6] = test system: E. coli with mevalonate biosensor TA plasmid (pBAM-TA5); conditions: 37 mM mevalonate added; no IPTG
[7] = test system: E. coli strain e3.18#1; assay: Salicylic acid-dependent growth of addicted strain; conditions: 5 mM salicylic acid
Description: as §1, with “salicylic” for “benzoic”, “nahR_Asn169 (Cebolla et al., 1997))” for “nahR) (Table 12)”, “pBANspec (Table 10).” for “pBABspec.”
Recombineering was performed as described in section 2.3 using well-described methods utilizing the pKD46 plasmid (Datsenko and Wanner, 2000). Instead of gene disruption, a specific set of knock-out DNA fragments was used to only replace the native essential folP-glmM operon promoter and folP RBS. […]
as §2, with “(e3.18#1)” for “(e3.22#4)”, “salicylic” for “benzoic”, “presence/absence of” for “w/wo”

[8] = test system: E. coli control strain e3.18CON; assay: Toxicity of salicylic acid to non-addicted control strain, growth in microtiter plate; conditions: 2xYT, 5 mM salicylic acid, 37 deg. C.
Experimental: Recombineering was performed as described in section 2.3 using well-described methods utilizing the pKD46 plasmid (Datsenko and Wanner, 2000). Instead of gene disruption, a specific set of knock-out DNA fragments was used to only replace the native essential folP-glmM operon promoter and folP RBS. This set of knockout DNA fragments contained a kanamycin resistance cassette and the pSAL promoter, as illustrated in the cartoon in FIG. 8, as well as a redundant nucleotide (“N”, wherein “N” is any of A, T , G or C) in the RBS for folP-glmM to generate a four-membered library of folP translational strengths. This library allows selection of a translational strength for folP that suits the transcriptional regulation by the biosensor. Finally, candidate recombineered cells were selected for by plating on LB agar plates supplemented with 5 mM salicylic acid and spectinomycin for maintenance of pBANspec; and kanamycin for selection of inserted knockout fragment. […]
as §2, with “(e3.18#1)” for “(e3.22#4)”, “salicylic” for “benzoic”, “presence/absence of” for “w/wo”

[9] = test system: E. coli control strain e3.16CON; assay: Toxicity of triacetic acid lactone to non-addicted control strain, growth in microtiter plate
Experimental: A non-addicted control E. coli strain (e3.16CON), also equipped with spectinomycin and kanamycin resistance genes, but with wildtype control of folP-glmM expression (Table 9), was constructed in order to test the toxicity of triacetic acid lactone.
The non-addicted control E. coli strain (e3.16CON), and a selected addicted strain (e3.16#5) were then tested and compared for triacetic acid lactone-dependent growth by cultivation in a microtiter plate reader in liquid 2xYT medium supplemented with spectinomycin and kanamycin and a three-step gradient of triacetic acid lactone (0, 2 and 20 mM). […] The observed growth depression was greatest at a concentration of 20 mM triacetic acid lactone.

[10] = test system: E. coli strain e3.16#5; assay: Triacetic acid lactone-dependent growth of addicted strain
Description: The native single genomic copy of the essential gene operon folP-glmM in the E. coli XL1 host strain was modified to allow its transcriptional control by the triacetic acid lactone-responsive promoter pBAD. First, a gene encoding a triacetic acid lactone biosensor (AraCtal (Tang et al., 2013)) was introduced into the XL1 host strain on the plasmid pBALspec (Table 8). Then, replacement of the native folP-glmM promoter in this host strain by the pBAD promoter was engineered by means of lambda red-mediated recombineering. Recombineering was performed using well-described methods utilizing the pKD46 plasmid (Datsenko and Wanner, 2000), but instead of gene disruption, a specific set of knock-out DNA fragments (produced by PCR) was used to only replace the native essential folP-glmM operon promoter and folP ribosomal binding site (RBS). This set of knockout DNA fragments each contained a kanamycin resistance cassette and the pBAD promoter, as illustrated in the cartoon in FIG. 8. The nucleotide sequence of the set of gene knockout DNA fragments differed only with respect to the redundant nucleotide (“N”, wherein “N” is any of A, T, G or C) in the RBS sequence (ACTTGC) for folP-glmM, which generated a four-membered library of folP translational strengths.
For recombineering, as performed in standard pKD46 protocols, the target strain was first transformed with pKD46, and a single colony of this strain was then cultured in a 25 mL 2xYT culture at 30 degrees C. and 250 rpm horizontal shaking. When the culture reached OD600=0.1, the lambda Red system of pKD46 was induced by addition of 0.2 vol % L-arabinose, and then further cultured to grow to OD600=0.4. […]
The non-addicted control E. coli strain (e3.16CON), and a selected addicted strain (e3.16#5) were then tested and compared for triacetic acid lactone-dependent growth by cultivation in a microtiter plate reader in liquid 2xYT medium supplemented with spectinomycin and kanamycin and a three-step gradient of triacetic acid lactone (0, 2 and 20 mM). […]

Q: With `CC(C)S[C@@H]1O[C@H](CO)[C@H](O)[C@H](O)[C@H]1O` [IPTG, isopropyl β-D-1-thiogalactopyranoside] as the compound, how does the “IPTG (toxin inducer) concentration at which cell growth was strongly inhibited” value ([1]; no L-arabinose, yoeB toxin under pLac) read?
A: ≥ 0.1 mM

Q: With `O=C[C@H](O)[C@@H](O)[C@@H](O)CO` [L-arabinose] as the compound, how does the cell growth ([2]; 2xYT supplemented with 0.0025% L-arabinose, 12-hour time course) read?
A: completely failed to grow

Q: And the cell growth ([2]; 2xYT supplemented with 0.25% L-arabinose)?
A: exponential

Q: And the “L-arabinose concentration sufficient to restore wild-type growth” value ([1]; co-addition with IPTG at concentrations up to 0.5 mM)?
A: 0.1%

Q: Which effect on growth [3] does the source give for `Cc1ncc(C[n+]2csc(CCO[P@](=O)(O)OP(=O)(O)O)c2C)c(N)n1` [TPP, thiamine pyrophosphate] here?
A: enhanced growth

Q: With `O=C(O)c1ccccc1` [benzoic acid] as the compound, how does the “growth rate and final biomass yield of addicted strain” value [4] read?
A: enhanced

Q: And the “effect on growth of control strain” value [5]?
A: relative reduction in growth rate and final biomass yield

Q: For `CC(O)(CCO)CC(=O)O` (stereo not drawn) [mevalonate], which “effect on cell growth compared to cultures devoid of mevalonate” value [6] is on record?
A: increase in cell growth

Q: With `O=C(O)c1ccccc1O` [salicylic acid] as the compound, how does the “growth rate of addicted strain” value [7] read?
A: not reduced

Q: What about the “effect on growth of control strain” value [8] of the same compound?
A: relative reduction in growth rate and final biomass yield

Q: What does the source list for `Cc1cc(O)cc(=O)o1` [triacetic acid lactone]?
A: effect on growth of control strain ([9]; 2xYT, 0, 2 and 20 mM triacetic acid lactone, 37 deg. C.): relative reduction in growth rate; concentration at which observed growth depression was greatest ([9]; gradient 0, 2 and 20 mM): 20000 µM; final cell yield of addicted strain ([10]; 2 mM triacetic acid lactone): increased; growth rate of addicted strain ([10]; 2 mM triacetic acid lactone): enhanced; final cell yield of addicted strain ([10]; 20 mM triacetic acid lactone): increased

Source: patent US12031170B2, “System for improved production titers in fermentations” (DANMARKS TEKNISKE UNIVERSITET, priority 2015, dated 2024)
